The text below walks through data of patent US20110172217A1, “RING-FUSED MORPHOLINE DERIVATIVE HAVING PI3K-INHIBITING ACTIVITY” (Shionogi & Co., Ltd., priority 2008, published 2011).

Data set [1] deals with T1, human ether-a-go-go related gene (hERG) channel (Homo sapiens, UniProt Q12809).
T1 construct: expressed in transfected cells; host or cells: HEK293
As to the kind of experiment: hERG test, whole-cell patch-clamp, IKr. To be noted: 1 μmol/L compound; HEK293 cell expressing hERG. It counts as cell-based. From the text:
For the purpose of risk evaluation of QT interval extension of electrocardiogram, the activity on delayed rectification K^+ current (IKr), which plays an important role in a cardiac ventricle repolarization process, was examined using the HEK293 cell that was made to express human ether-a-go-go related gene (hERG) channel.
Using an automatic patch-clamp system (PatchXpress 7000A, Axon Instruments Inc.), by a whole-cell patch-clamp method, after the cell was maintained at a membrane potential of −80 mV, IKr induced upon applying depolarizing stimulation of +50 mV for 2 seconds and further applying repolarizing stimulation of −50 mV for 2 seconds was recorded. After generated electric current became stable, a test substance dissolved at an intended concentration in extracellular fluid (137 mmol/L NaCl, 4 mmol/L KCl, 1.8 mmol/L CaCl2.2H2O, 1 mmol/L MgCl2.6H2O, 10 mmol/L glucose, 10 mmol/L HEPES (4-(2-hydroxyethyl)-1-piperazineethanesulfonic acid), pH=7.4) was applied to the cell for 10 minutes under room temperature condition. From the obtained IKr, the absolute value of the maximum tail current was measured using analysis software (DataXpress ver. 1, Molecular Devices Corporation) and the value of the electric current in a maintained membrane potential as baseline. Moreover, an inhibition ratio for the maximum tail current prior to the application of the test substance was calculated and then compared with a group of media-application (0.1% dimethylsulfoxide solution) to evaluate influence of the test substance on IKr.
Background: hERG is a cardiac potassium channel; its block is linked to QT prolongation.

The target of a further data set is T2, CYP1A2 (Homo sapiens, UniProt P05177).
T2 construct: enzyme: pooled human liver microsome 0.2 mg protein/mL; from tissue; host or cells: pooled human liver microsomes
T2 sequence (P05177 1-516): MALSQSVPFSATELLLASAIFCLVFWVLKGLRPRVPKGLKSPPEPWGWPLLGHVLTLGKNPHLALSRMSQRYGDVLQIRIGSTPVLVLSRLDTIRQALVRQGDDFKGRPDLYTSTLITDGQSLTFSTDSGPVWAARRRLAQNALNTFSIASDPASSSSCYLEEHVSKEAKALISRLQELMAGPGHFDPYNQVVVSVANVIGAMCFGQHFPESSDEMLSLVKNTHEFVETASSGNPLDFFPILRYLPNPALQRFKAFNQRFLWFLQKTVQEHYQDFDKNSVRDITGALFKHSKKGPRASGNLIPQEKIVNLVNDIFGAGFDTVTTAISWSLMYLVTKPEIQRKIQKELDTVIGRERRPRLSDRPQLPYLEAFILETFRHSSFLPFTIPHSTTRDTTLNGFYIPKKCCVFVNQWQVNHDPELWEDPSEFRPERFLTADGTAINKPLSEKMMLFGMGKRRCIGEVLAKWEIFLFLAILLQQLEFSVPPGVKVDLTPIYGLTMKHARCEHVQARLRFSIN
As to the kind of experiment: CYP inhibition test, O-de-ethylation of 7-ethoxyresorufin. It counts as in vitro ADME. To be noted: pooled human liver microsome; one of 5 kinds. The source says: (§1) O-de-ethylation of 7-ethoxyresorufin (CYP1A2), methyl-hydroxylation of tolbutamide (CYP2C9), 4′-hydroxylation of mephenyloin (CYP2C19), O-demethylation of dextromethorphan (CYP2D6), and hydroxylation of terfenadine (CYP3A4), which are typical substrate for metabolic reactions of human main CYP5 molecular species (CYP1A2, 2C9, 2C19, 2D6, and 3A4), were adopted as indexes.
(§2) The reaction conditions are as follows: substrate: 0.5 μmol/L of ethoxyresorufin (CYP1A2), 100 μmol/L of tolbutamide (CYP2C9), 50 μmol/L of S-mephenyloin (CYP2C19), […] of dextromethorphan (CYP2D6), and 1 μmol/L of terfenadine (CYP3A4); reaction time; 15 minutes; reaction temperature: 37° C.; enzyme: pooled human liver microsome 0.2 mg protein/mL; test drug concentration: 1, 5, 10, and 20 μmol/L (4 points).
(§3) In a 96-well plate, as a reaction solution, five kinds of substrates, a human liver microsome, and a test drug were added to 50 mmol/L Hepes buffer solution in the aforementioned ratio. A coenzyme NADPH was added to start a metabolic reaction, which is an index. After reacting at 37° C. for 15 minutes, a solution of methanol/acetonitrile (1/1 (v/v)) was added to quench the reaction. After centrifugation at 3000 rpm for 15 minutes, resorufin (CYP1A2 metabolite) in the supernatant was quantitated with a fluorescence multilabel counter, and hydroxylated tolbutamide (CYP2C9 metabolite), 4′-hydroxylated mephenyloin (CYP2C19 metabolite), […], terfenadine in alcohol form (CYP3A4 metabolite) were quantitated with LC/MS/MS.
(§4) The case wherein only DMSO (a solvent which dissolved a drug) was added to a reaction system was defined as a control (100%). When a test drug solution was added, the remaining activity (%) at each concentration was calculated, and then IC50 was calculated with a concentration and an inhibition ratio by an inverse estimation using a logistic model.
Background: Microsomes from liver hold many membrane-bound enzymes, among them those of drug oxidation.

Another data set has as its target T3, CYP2D6 (Homo sapiens, UniProt P10635).
T3 construct: enzyme: pooled human liver microsome 0.2 mg protein/mL; from tissue; host or cells: pooled human liver microsomes
As to the kind of experiment: CYP inhibition test, O-demethylation of dextromethorphan. The class given is in vitro ADME. The note with it: pooled human liver microsome; one of 5 kinds.
Source text: as §1, §2, §3, §4

The target in a further data set is T4, CYP2C9 (Homo sapiens, UniProt P11712).
T4 construct: enzyme: pooled human liver microsome 0.2 mg protein/mL; from tissue; host or cells: pooled human liver microsomes
T4 sequence (P11712 whole entry): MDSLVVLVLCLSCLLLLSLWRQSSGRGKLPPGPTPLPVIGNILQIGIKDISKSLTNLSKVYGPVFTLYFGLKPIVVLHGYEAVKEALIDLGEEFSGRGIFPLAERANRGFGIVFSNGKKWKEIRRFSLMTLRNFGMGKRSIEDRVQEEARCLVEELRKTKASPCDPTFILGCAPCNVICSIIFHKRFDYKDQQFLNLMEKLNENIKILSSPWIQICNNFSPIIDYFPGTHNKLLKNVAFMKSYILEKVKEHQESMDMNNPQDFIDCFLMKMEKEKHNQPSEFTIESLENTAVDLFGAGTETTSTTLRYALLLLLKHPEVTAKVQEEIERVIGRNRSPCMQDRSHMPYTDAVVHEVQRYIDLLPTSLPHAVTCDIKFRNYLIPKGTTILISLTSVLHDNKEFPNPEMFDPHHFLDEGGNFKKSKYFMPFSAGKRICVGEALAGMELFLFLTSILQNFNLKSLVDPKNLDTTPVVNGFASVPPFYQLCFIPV
As to the kind of experiment: CYP inhibition test, methyl-hydroxylation of tolbutamide. The class given is in vitro ADME. The note with it: pooled human liver microsome; one of 5 kinds.
Source text: as §1, §2, §3, §4

Data set [2] can be described thus: Solubility test in artificial intestinal juice pH 6.8. It counts as physicochemical. To be noted: kinetic from dmso stock, artificial intestinal juice pH 6.8, 1% DMSO, 25° C. Here is the method:
The solubility of a compound was determined under a condition in which 1% DMSO was added. 10 mmol/L compound solution was prepared using DMSO, and then 6 μL of the compound solution was added to 594 μL of artificial intestinal juice in pH 6.8 (to 250 mL of 0.2 mol/L potassium dihydrogen phosphate reagent solution was added 118 mL of 0.2 mol/L NaOH reagent solution and water to provide a final volume of 1000 mL). After standing at 25° C. for 16 hours, the mixed solution was filtered with suction. The filtrate was diluted twice with methanol/water (1/1), and then a concentration in the filtration was measured with HPLC or LC/MS/MS by the absolute calibration method.

T3 sequence (P10635 whole entry): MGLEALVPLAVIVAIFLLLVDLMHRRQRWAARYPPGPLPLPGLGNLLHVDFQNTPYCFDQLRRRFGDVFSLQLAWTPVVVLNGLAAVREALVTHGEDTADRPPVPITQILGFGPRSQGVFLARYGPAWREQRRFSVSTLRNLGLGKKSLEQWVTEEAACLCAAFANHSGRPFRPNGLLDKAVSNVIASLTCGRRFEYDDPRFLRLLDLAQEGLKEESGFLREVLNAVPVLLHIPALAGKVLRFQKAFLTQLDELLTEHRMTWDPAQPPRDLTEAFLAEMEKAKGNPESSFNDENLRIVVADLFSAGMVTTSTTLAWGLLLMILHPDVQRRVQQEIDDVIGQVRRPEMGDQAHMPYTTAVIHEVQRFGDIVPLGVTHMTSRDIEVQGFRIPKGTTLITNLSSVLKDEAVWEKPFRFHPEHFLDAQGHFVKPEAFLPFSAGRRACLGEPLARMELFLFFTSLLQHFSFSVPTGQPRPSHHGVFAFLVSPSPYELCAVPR
T1 sequence (Q12809 whole entry): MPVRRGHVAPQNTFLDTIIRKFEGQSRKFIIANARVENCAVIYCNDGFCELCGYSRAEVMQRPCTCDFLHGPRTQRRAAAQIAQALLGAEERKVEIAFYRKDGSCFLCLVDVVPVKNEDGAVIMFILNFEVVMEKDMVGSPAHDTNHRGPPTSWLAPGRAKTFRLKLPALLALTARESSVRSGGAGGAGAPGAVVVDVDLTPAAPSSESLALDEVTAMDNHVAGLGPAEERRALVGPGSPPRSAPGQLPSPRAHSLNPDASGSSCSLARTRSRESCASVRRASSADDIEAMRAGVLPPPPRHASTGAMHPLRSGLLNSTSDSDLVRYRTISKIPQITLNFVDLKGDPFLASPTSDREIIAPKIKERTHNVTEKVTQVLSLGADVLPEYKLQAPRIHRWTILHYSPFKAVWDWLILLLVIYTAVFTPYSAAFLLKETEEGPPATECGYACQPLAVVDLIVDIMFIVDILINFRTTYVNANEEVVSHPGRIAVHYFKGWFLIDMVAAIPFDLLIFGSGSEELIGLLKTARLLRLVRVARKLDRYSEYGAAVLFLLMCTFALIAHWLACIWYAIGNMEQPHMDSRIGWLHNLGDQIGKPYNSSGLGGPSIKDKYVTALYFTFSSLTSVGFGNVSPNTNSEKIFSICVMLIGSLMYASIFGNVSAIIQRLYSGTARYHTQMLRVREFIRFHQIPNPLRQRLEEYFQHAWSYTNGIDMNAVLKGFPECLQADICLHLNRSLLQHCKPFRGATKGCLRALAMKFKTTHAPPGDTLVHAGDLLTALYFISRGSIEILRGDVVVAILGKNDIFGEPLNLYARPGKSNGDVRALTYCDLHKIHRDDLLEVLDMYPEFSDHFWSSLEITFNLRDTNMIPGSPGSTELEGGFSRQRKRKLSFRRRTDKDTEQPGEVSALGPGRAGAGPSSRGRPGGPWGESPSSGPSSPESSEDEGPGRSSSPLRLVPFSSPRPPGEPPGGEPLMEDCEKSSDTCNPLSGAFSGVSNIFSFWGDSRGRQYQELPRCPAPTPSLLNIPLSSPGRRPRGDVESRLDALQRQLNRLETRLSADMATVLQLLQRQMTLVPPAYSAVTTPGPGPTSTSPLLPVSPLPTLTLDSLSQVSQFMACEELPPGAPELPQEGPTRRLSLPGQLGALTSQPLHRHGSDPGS

With `O=C(O)c1ccccc1Nc1ccc2c(n1)N(C(=O)Nc1ccccc1)CCO2` [Compound I-145], the “hERG inhibition ratio for the maximum tail current (IKr)” value in data set [1] was determined as 15%.

Regarding `O=C(O)COc1cccc(Nc2ccc3c(n2)N(C(=O)Nc2ccccc2)CCO3)c1` [Compound I-240], the IC50 against CYP1A2, against CYP2D6 and against CYP2C9 was over 20 µM in each case. Also, the solubility at 16 h in data set [2] is over 50 µM.

A word on the IC50: it is the concentration that gives 50% inhibition. For orientation: solubility means the concentration that dissolves in the medium under given conditions. Low values mean a poorly soluble substance, high ones a readily soluble substance.
